Laboratory results as given in PubChem BioAssay (NCI).
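Compound exposure: 48 hours, 5 concentrations, 96-well plates. TGI marks complete inhibition of growth.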

What was measured:
Test in all cases: DTP human tumour cell line panel, 48 h
PC-3 prostate = test system: PC-3 prostate
ACHN renal = test system: ACHN renal
MALME-3M melanoma = test system: MALME-3M melanoma
HOP-62 NSCLC = test system: HOP-62 NSCLC
HCT-15 colon = test system: HCT-15 colon
CAKI-1 renal = test system: CAKI-1 renal
K-562 leukemia = test system: K-562 leukemia
RPMI-8226 leukemia = test system: RPMI-8226 leukemia
SF-268 CNS = test system: SF-268 CNS
IGROV1 ovarian = test system: IGROV1 ovarian
786-0 renal = test system: 786-0 renal
OVCAR-4 ovarian = test system: OVCAR-4 ovarian
NCI-H23 lung = test system: NCI-H23 lung
KM12 colon = test system: KM12 colon

Compound	TGI (PC-3 prostate)	TGI (ACHN renal)	TGI (MALME-3M melanoma)	TGI (HOP-62 NSCLC)	TGI (HCT-15 colon)	TGI (CAKI-1 renal)	TGI (K-562 leukemia)	TGI (RPMI-8226 leukemia)	TGI (SF-268 CNS)	TGI (IGROV1 ovarian)	TGI (786-0 renal)	TGI (OVCAR-4 ovarian)	TGI (NCI-H23 lung)	TGI (KM12 colon)
CSC(=NCCN=C(NS(=O)(=O)c1ccc(Cl)cc1)SC)NS(=O)(=O)c1ccc(Cl)cc1	> 100 µM	> 100 µM	> 100 µM	87.8 µM	> 100 µM	> 100 µM	> 100 µM	> 100 µM	68.7 µM	> 100 µM	> 100 µM	> 100 µM	> 100 µM	–
NC(=O)N(O)c1cccc(Br)c1	> 100 µM	> 100 µM	–	> 100 µM	> 100 µM	> 100 µM	> 100 µM	> 100 µM	> 100 µM	> 100 µM	> 100 µM	> 100 µM	> 100 µM	> 100 µM
CC(=O)OC[C@@]12C[C@H]3C(=O)C(C)(C)C[C@H]3[C@]1(C)[C@@H](OC(C)=O)[C@]1(O)[C@H]([C@@H](OC(=O)c3ccccc3)[C@@H](C)[C@H]1OC(C)=O)[C@H]2OC(C)=O	> 20 µM	> 20 µM	–	> 20 µM	> 20 µM	> 20 µM	> 20 µM	–	> 20 µM	> 20 µM	> 20 µM	> 20 µM	> 20 µM	> 20 µM
Cc1ccc(/C=N/Nc2ncccn2)s1	> 100 µM	> 100 µM	> 100 µM	> 100 µM	> 100 µM	> 100 µM	–	> 100 µM	> 100 µM	> 100 µM	> 100 µM	> 100 µM	> 100 µM	> 100 µM
COc1cc(CC2c3cc(OC)c(OC)cc3CCN2C)c(Oc2cc3c(cc2OC)-c2c(OC)c(OC)c(OC)c4c2C(C3)N(C)CC4)cc1OC (stereo unspecified)	–	30.9 µM	6.67 µM	31.3 µM	23.4 µM	32.1 µM	> 30.5 µM	> 45.7 µM	32.8 µM	29.9 µM	21.5 µM	33.1 µM	34.9 µM	29.3 µM
CCOC(=O)CCC(NC(=O)OCc1ccccc1)C(=O)NC(CCC(=O)OCC)C(=O)NC(CCC(=O)OCC)C(=O)NC(CCC(=O)OCC)C(=O)NC(CCC(=O)OCC)C(=O)OCC (stereo unspecified)	> 100 µM	> 100 µM	> 100 µM	> 100 µM	> 100 µM	> 100 µM	–	> 100 µM	–	> 100 µM	> 100 µM	> 100 µM	> 100 µM	> 100 µM
O=C(C1OC1c1ccc([N+](=O)[O-])cc1)C12CC3CC(CC(C3)C1)C2 (stereo unspecified)	28.1 µM	34 µM	32.4 µM	56.3 µM	31.5 µM	36 µM	33.5 µM	–	40.8 µM	34.6 µM	22.1 µM	38.9 µM	27.2 µM	30.1 µM
CC1(C)CC(=O)c2c(nc3ccc4ccccc4c3c2-c2ccc(NC(=O)CCCCC(=O)Nc3ccc(-c4c5c(nc6ccc7ccccc7c46)CC(C)(C)CC5=O)cc3)cc2)C1	> 100 µM	> 100 µM	–	> 100 µM	> 100 µM	> 100 µM	> 100 µM	> 100 µM	> 100 µM	> 100 µM	> 100 µM	–	> 100 µM	> 100 µM
CCCCCCCCCN1CCC(=O)C(C(=O)OC)C1 (stereo unspecified)	–	21 µM	–	31.3 µM	26.9 µM	29.2 µM	–	49.1 µM	30.2 µM	–	30.6 µM	12.4 µM	8.59 µM	13.1 µM
CCN(CC)CCNc1ccc(C)c2sc3ccc(O)cc3c(=O)c12	–	1.63 µM	2.38 µM	1.66 µM	2.72 µM	21.8 µM	3.62 µM	4.95 µM	7.93 µM	5.19 µM	2.01 µM	6.12 µM	14 µM	3.39 µM
Cc1nc2c(-c3ccccc3)[nH]c(C)c2c(=O)o1	> 100 µM	> 100 µM	–	> 100 µM	> 100 µM	> 100 µM	> 100 µM	> 100 µM	> 100 µM	> 100 µM	> 100 µM	> 100 µM	> 100 µM	> 100 µM
Nc1ccn(C2OC(COP(=O)(O)Oc3ccccc3)C(O)C2O)c(=O)n1 (stereo unspecified)	–	–	> 100 µM	–	> 100 µM	> 100 µM	> 100 µM	> 100 µM	> 100 µM	> 100 µM	–	> 100 µM	> 100 µM	> 100 µM
COc1ccc2c(c1)c1cc(OC)ccc1n2CCCCOc1ccc(-c2c3ccccc3c(-c3ccc(OCCCCn4c5ccc(OC)cc5c5cc(OC)ccc54)cc3)c3ccccc23)cc1	–	> 100 µM	> 100 µM	> 100 µM	> 100 µM	> 100 µM	> 100 µM	–	> 100 µM	> 100 µM	–	> 100 µM	–	> 100 µM
COCN1C(=O)[C@@H]2CCCN2C(=O)c2cc([N+](=O)[O-])ccc21	> 100 µM	> 100 µM	> 100 µM	> 100 µM	> 100 µM	> 100 µM	–	–	> 100 µM	> 100 µM	> 100 µM	> 100 µM	> 100 µM	> 100 µM
Cc1nc(-c2nc([N+](=O)[O-])c([N+](=O)[O-])[nH]2)cs1	–	> 100 µM	> 100 µM	> 100 µM	–	> 100 µM	> 100 µM	> 100 µM	> 100 µM	> 100 µM	–	> 100 µM	> 100 µM	> 100 µM
CSCCCCCCCCCCOc1ccc(C=C2C(=C(C#N)C#N)c3ccccc3C2=C(C#N)C#N)cc1	31.4 µM	29.5 µM	–	32.2 µM	46.8 µM	32.3 µM	> 100 µM	> 100 µM	34.2 µM	34.7 µM	37.4 µM	41.3 µM	48.9 µM	36.8 µM
CCOC(=O)c1nc2cc(C(F)(F)F)ccc2nc1Nc1ccc(Cl)c(Cl)c1	> 100 µM	> 100 µM	> 100 µM	> 100 µM	> 100 µM	> 100 µM	–	> 100 µM	> 100 µM	> 100 µM	> 100 µM	> 100 µM	> 100 µM	> 100 µM
